In US8648086B2, “5,6-bicyclic heteroaryl-containing urea compounds as kinase inhibitors” (Ascepion Pharmaceuticals, Inc., priority 2009, dated 2014):
Structures can show the parent of a compound that is named as a salt.

Legend:
[1] = molecular target: T1, VEGFR2 (Homo sapiens, UniProt P35968); assay: VEGFR2 cell-based assay (phospho-VEGFR2 ELISA, transfected CHO cells); conditions: compound at 100 nM, read-out: % VEGFR2 kinase activity remains
T1 construct: expressed in transfected cells; host or cells: CHO cells, pcDNA3.1 plasmid
Protocol: A standard cell-based assay for VEGFR2 kinase activity can be used to test compounds of this invention and to identify VEGFR2 antagonists.
Specifically, a compound to be tested was first dissolved in DMSO to a concentration of 10 mM and stored at −20° C. The activity of VEGFR2 in cells depends on the phosphorylation level at its intracellular domain induced by the ligand. In order to express VEGFR2 in the cells, full length VEGFR2 sequence was cloned into PC-DNA3.1 vector, the plasmid was then transfected into CHO cells. After 48 hours, the expression of VEGFR2 in transfected CHO cells was confirmed by regular western blotting.
To screen the compounds of this invention, the ELISA kit (R&D Systems) was used. One day before the screening, CHO cells transfected with full length VEGFR2 plasmid were grown in DMEM medium without the presence of serum. On the day of screening, various concentrations of compounds (From 0.5 nM to 500 nM) were added into DMEM medium. Two hours later, 20% of FBS (Fetal Bovine Serum) was added into the medium to stimulate the production of phosphor-VEGFR2. Cell lysate from approximately 5×10^5 transfected CHO cells were reacted with anti-phosphor-VEGFR2 or anti-total VEGFR2 antibody in 96 well plates. In the presence of detection antibody, the phosphor-VEGFR2 or total VEGFR2 were detected with Streptavidin-HRP (R&D Systems) followed by chemiluminescence detection.

[2] = molecular target: T2, c-Met (Homo sapiens, UniProt P08581); assay: c-Met cell-based assay (phospho-c-Met ELISA, A549 cells); conditions: compound at 100 nM
T2 construct: endogenous in cells; host or cells: A549 cells
Protocol: A procedure for standard cell-based assay for c-Met kinase activity can be used to test compounds of this invention for their inhibitory effect on this kinase and to identify c-Met antagonists.
Specifically, a compound to be tested was first dissolved in DMSO to a concentration of 10 mM and stored at −20° C. The activity of c-Met in cells depends on the phosphorylation level at its intracellular domain induced by its ligand, Hepatocyte growth factor (HGF). In order to induce the cells to produce phosphate c-Met, paracrine HGF-dependent NSCLC (None Small Cell Lung Cancer) A549 cells were grown in DMEM with 10% FBS.
To screen compounds of this invention for their inhibitory effect on c-Met kinase, the ELISA kit (R&D Systems) was used. One day before screening procedure, A549 cells were grown in DMEM without the presence of serum. On the day of screening procedure, various concentrations of compounds (from 0.5 nM to 500 nM) were added into the culture medium. Two hours later, 20% of FBS (Fetal Bovine Serum) was added into the medium to stimulate the expression of phosphor-c-Met. After 20 minutes, cell lysate from approximately 5×10^5 A549 cells were reacted with anti-phosphor-c-Met or anti total c-Met antibody in 96 well plates. In the presence of detection antibody, the phosphor-c-Met or total c-Met can be detected with Streptavidin-HRP (R&D Systems) followed by chemiluminescence detection.

T2 sequence (P08581 25-1390): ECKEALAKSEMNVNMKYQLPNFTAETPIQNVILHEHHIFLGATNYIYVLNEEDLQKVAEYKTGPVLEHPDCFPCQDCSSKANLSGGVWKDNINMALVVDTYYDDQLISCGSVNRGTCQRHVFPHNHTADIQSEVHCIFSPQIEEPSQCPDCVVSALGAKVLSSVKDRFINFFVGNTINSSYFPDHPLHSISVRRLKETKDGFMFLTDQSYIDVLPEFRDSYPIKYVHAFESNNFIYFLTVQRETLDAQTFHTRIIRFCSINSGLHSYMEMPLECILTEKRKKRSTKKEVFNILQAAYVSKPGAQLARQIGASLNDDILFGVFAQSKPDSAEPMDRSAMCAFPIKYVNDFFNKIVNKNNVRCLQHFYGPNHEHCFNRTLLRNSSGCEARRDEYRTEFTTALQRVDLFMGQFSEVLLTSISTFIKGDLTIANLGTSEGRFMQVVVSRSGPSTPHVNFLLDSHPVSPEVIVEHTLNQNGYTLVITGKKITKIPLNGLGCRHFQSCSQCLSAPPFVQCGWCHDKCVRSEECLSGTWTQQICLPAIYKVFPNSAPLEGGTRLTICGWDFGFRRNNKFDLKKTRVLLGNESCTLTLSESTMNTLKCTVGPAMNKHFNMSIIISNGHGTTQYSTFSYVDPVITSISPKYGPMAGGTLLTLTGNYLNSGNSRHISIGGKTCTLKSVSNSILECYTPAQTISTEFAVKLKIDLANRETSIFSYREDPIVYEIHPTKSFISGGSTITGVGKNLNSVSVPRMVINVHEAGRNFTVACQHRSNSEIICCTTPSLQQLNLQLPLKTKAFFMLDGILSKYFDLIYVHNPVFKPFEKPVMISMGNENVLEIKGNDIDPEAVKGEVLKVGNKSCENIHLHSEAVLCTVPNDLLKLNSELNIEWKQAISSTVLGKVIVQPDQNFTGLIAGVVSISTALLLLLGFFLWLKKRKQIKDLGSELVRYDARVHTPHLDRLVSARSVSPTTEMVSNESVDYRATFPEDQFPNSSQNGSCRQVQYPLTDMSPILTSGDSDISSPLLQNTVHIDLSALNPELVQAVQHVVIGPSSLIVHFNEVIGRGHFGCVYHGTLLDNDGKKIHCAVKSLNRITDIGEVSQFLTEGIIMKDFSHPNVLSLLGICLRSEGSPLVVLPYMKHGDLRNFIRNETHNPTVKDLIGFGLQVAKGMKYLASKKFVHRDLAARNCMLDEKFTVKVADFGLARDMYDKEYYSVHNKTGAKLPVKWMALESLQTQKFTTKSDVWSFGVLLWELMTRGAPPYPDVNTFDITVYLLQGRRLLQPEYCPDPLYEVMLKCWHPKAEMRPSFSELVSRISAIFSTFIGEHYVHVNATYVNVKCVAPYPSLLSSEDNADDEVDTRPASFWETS
T1 sequence (P35968 20-1356, species assumed): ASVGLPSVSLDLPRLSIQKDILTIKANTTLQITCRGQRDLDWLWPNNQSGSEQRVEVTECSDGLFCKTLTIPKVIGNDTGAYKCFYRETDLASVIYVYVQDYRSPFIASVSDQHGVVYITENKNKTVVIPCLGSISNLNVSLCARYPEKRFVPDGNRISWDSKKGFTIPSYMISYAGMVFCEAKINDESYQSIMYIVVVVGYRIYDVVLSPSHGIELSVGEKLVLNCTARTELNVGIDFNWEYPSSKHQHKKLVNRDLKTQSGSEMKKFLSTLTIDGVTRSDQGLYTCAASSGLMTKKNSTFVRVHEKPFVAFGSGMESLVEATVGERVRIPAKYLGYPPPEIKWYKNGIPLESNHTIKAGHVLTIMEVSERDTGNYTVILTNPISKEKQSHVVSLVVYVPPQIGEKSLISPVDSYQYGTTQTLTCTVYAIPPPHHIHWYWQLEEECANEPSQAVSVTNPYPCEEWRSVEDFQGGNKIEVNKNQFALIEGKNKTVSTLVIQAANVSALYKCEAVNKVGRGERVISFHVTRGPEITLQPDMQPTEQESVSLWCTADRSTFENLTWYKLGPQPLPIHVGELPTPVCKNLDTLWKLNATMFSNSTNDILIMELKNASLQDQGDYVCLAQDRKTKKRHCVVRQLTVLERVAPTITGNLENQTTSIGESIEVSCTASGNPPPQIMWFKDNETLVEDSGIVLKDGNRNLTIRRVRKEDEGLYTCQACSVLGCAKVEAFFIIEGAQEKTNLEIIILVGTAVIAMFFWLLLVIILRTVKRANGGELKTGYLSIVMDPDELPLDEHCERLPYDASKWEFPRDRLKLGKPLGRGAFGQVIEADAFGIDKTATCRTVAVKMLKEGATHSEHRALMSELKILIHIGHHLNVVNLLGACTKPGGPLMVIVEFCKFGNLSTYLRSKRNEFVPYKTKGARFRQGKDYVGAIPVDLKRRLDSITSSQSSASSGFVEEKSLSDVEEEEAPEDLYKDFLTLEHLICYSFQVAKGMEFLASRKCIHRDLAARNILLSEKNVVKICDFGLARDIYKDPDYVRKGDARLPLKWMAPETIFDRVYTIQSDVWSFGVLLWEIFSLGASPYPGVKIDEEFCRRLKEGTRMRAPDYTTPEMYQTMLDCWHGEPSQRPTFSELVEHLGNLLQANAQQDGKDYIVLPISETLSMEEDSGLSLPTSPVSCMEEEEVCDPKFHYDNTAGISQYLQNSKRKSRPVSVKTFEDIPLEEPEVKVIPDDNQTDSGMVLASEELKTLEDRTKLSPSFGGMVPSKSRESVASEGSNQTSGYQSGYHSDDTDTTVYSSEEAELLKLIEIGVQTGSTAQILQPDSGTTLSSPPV

Structure (SMILES) | remaining activity at 0.1 µM [1] | % c-Met kinase activity remains [2]
O=C(Nc1ccccc1Cl)Nc1cccc2c1ccn2Cc1c[nH]c2ncccc12 [Example 8, 1-(2-Chlorophenyl)-3-[1-(1H-pyrrolo[2,3-b]pyridin-3-ylmethyl)-1H-indol-4-yl]urea hydrochloride] | ≥ 70% | A (the percentage of kinase activity remains is below 70%)
Cl.O=C(Nc1ccccc1OC(F)(F)F)Nc1cccc2c1ccn2Cc1c[nH]c2ncccc12 [Example 20, 1-(2-Trifluoromethoxyphenyl)-3-[1-(1H-pyrrolo[2,3-b]pyridin-3-ylmethyl)-1H-indol-4-yl]urea hydrochloride] | < 70% | A (the percentage of kinase activity remains is below 70%)
Cl.O=C(Nc1ccc(F)cc1)Nc1cccc2c1ccn2Cc1c[nH]c2ncccc12 [Example 7, 1-(4-Fluorophenyl)-3-[1-(1H-pyrrolo[2,3-b]pyridin-3-ylmethyl)-1H-indol-4-yl]urea hydrochloride] | < 70% | A (the percentage of kinase activity remains is below 70%)
Cl.O=C(Nc1cccc(C(F)(F)F)c1)Nc1cccc2c1ccn2Cc1c[nH]c2ncccc12 [Example 24, 1-(3-Trifluoromethylphenyl)-3-[1-(1H-pyrrolo[2,3-b]pyridin-3-ylmethyl)-1H-indol-4-yl]urea hydrochloride] | < 70% | A (the percentage of kinase activity remains is below 70%)
COc1cccc(NC(=O)Nc2cccc3c2ccn3Cc2c[nH]c3ncccc23)c1.Cl [Example 18, 1-(3-Methoxyphenyl)-3-[1-(1H-pyrrolo[2,3-b]pyridin-3-ylmethyl)-1H-indol-4-yl]urea hydrochloride] | < 70% | A (the percentage of kinase activity remains is below 70%)
Cc1ccccc1NC(=O)Nc1cccc2c1ccn2Cc1c[nH]c2ncccc12.Cl [Example 14, 1-(2-Methylphenyl)-3-[1-(1H-pyrrolo[2,3-b]pyridin-3-ylmethyl)-1H-indol-4-yl]urea hydrochloride] | < 70% | A (the percentage of kinase activity remains is below 70%)
Cl.O=C(Nc1ccccc1C(F)(F)F)Nc1cccc2c1ccn2Cc1c[nH]c2ncccc12 [Example 23, 1-(2-Trifluoromethylphenyl)-3-[1-(1H-pyrrolo[2,3-b]pyridin-3-ylmethyl)-1H-indol-4-yl]urea hydrochloride] | < 70% | A (the percentage of kinase activity remains is below 70%)
Cl.O=C(Nc1ccc(C(F)(F)F)cc1)Nc1cccc2c1ccn2Cc1c[nH]c2ncccc12 [Example 25, 1-(4-Trifluoromethylphenyl)-3-[1-(1H-pyrrolo[2,3-b]pyridin-3-ylmethyl)-1H-indol-4-yl]urea hydrochloride] | ≥ 70% | A (the percentage of kinase activity remains is below 70%)
O=C(Nc1cccc(Cl)c1)Nc1cccc2c1ccn2Cc1c[nH]c2ncccc12 [Example 9, 1-(3-Chlorophenyl)-3-[1-(1H-pyrrolo[2,3-b]pyridin-3-ylmethyl)-1H-indol-4-yl]urea hydrochloride] | < 70% | B (the percentage is greater or equal to 70%)
Cc1ccc(NC(=O)Nc2cccc3c2ccn3Cc2c[nH]c3ncccc23)cc1.Cl [Example 16, 1-(4-Methylphenyl)-3-[1-(1H-pyrrolo[2,3-b]pyridin-3-ylmethyl)-1H-indol-4-yl]urea hydrochloride] | ≥ 70% | A (the percentage of kinase activity remains is below 70%)
Cl.O=C(Nc1ccccc1Br)Nc1cccc2c1ccn2Cc1c[nH]c2ncccc12 [Example 11, 1-(2-Bromophenyl)-3-[1-(1H-pyrrolo[2,3-b]pyridin-3-ylmethyl)-1H-indol-4-yl]urea hydrochloride] | ≥ 70% | A (the percentage of kinase activity remains is below 70%)
COc1ccccc1NC(=O)Nc1cccc2c1ccn2Cc1c[nH]c2ncccc12.Cl [Example 17, 1-(2-Methoxyphenyl)-3-[1-(1H-pyrrolo[2,3-b]pyridin-3-ylmethyl)-1H-indol-4-yl]urea hydrochloride] | < 70% | A (the percentage of kinase activity remains is below 70%)

Now from value to molecule, other results behind:

remaining activity at 0.1 µM [1] | Structure (SMILES) | % c-Met kinase activity remains [2]
≥ 70% | Cl.N#Cc1cccc(NC(=O)Nc2cccc3c2ccn3Cc2c[nH]c3ncccc23)c1 [Example 26, 1-(3-Cyanophenyl)-3-[1-(1H-pyrrolo[2,3-b]pyridin-3-ylmethyl)-1H-indol-4-yl]urea hydrochloride] | A (the percentage of kinase activity remains is below 70%)
< 70% | O=C(Nc1ccc(Cl)cc1)Nc1cccc2c1ccn2Cc1ccnc2[nH]ccc12 [Example 39, 1-(4-Chlorophenyl)-3-[1-(1H-pyrrolo[2,3-b]pyridin-4-ylmethyl)-1H-indol-4-yl]urea hydrochloride] | A (the percentage of kinase activity remains is below 70%)
< 70% | Cl.N#Cc1ccc(NC(=O)Nc2cccc3c2ccn3Cc2c[nH]c3ncccc23)cc1 [Example 27, 1-(4-Cyanophenyl)-3-[1-(1H-pyrrolo[2,3-b]pyridin-3-ylmethyl)-1H-indol-4-yl]urea hydrochloride] | A (the percentage of kinase activity remains is below 70%)
< 70% | Cc1ccc(Br)c(NC(=O)Nc2cccc3c2ccn3Cc2ccnc3[nH]ccc23)c1.Cl [Example 58, 1-(2-Bromo-5-methylphenyl)-3-[1-(1H-pyrrolo[2,3-b]pyridin-4-ylmethyl)-1H-indol-4-yl]urea hydrochloride] | A (the percentage of kinase activity remains is below 70%)
< 70% | Cl.O=C(Nc1ccc(Br)cc1)Nc1cccc2c1ccn2Cc1ccnc2[nH]ccc12 [Example 42, 1-(4-Bromophenyl)-3-[1-(1H-pyrrolo[2,3-b]pyridin-4-ylmethyl)-1H-indol-4-yl]urea hydrochloride] | B (the percentage is greater or equal to 70%)
< 70% | Cl.O=C(Nc1cc(Br)ccc1F)Nc1cccc2c1ccn2Cc1ccnc2[nH]ccc12 [Example 57, 1-(2-Fluoro-5-bromophenyl)-3-[1-(1H-pyrrolo[2,3-b]pyridin-4-ylmethyl)-1H-indol-4-yl]urea hydrochloride] | A (the percentage of kinase activity remains is below 70%)
< 70% | Cc1ccc(NC(=O)Nc2cccc3c2ccn3Cc2ccnc3[nH]ccc23)cc1.Cl [Example 45, 1-(4-Methylphenyl)-3-[1-(1H-pyrrolo[2,3-b]pyridin-4-ylmethyl)-1H-indol-4-yl]urea hydrochloride] | A (the percentage of kinase activity remains is below 70%)
< 70% | O=C(Nc1ccccc1Cl)Nc1cccc2c1ccn2Cc1ccnc2[nH]ccc12 [Example 37, 1-(2-Chlorophenyl)-3-[1-(1H-pyrrolo[2,3-b]pyridin-4-ylmethyl)-1H-indol-4-yl]urea hydrochloride] | A (the percentage of kinase activity remains is below 70%)
< 70% | Cc1c(F)cccc1NC(=O)Nc1cccc2c1ccn2Cc1ccnc2[nH]ccc12.Cl [Example 59, 1-(2-Methyl-3-fluorophenyl)-3-[1-(1H-pyrrolo[2,3-b]pyridin-4-ylmethyl)-1H-indol-4-yl]urea hydrochloride] | A (the percentage of kinase activity remains is below 70%)
< 70% | Cl.O=C(Nc1ccccc1F)Nc1cccc2c1ccn2Cc1ccnc2[nH]ccc12 [Example 34, 1-(2-Fluorophenyl)-3-[1-(1H-pyrrolo[2,3-b]pyridin-4-ylmethyl)-1H-indol-4-yl]urea hydrochloride] | B (the percentage is greater or equal to 70%)
